Results as given in patent US11597703B2, “Caspase inhibitors and methods of use thereof” (Histogen Inc., priority 2019, dated 2023).

Tests used:
IL-1β = assay: Mouse in vivo model of peritoneal inflammation (LPS/ATP), IL-1β in peritoneal lavage fluid; parameters: species or system Mice; settings: mouse peritonitis, IP injection
Description: Compounds of the present invention were tested in a mouse in vivo model of peritoneal inflammation (peritonitis). Mice were treated with intraperotonial injection of bacterial endotoxin, (LPS). After 1 hour, test compounds were administered by IP injection. After an additional hour, adenosine triphosphate (ATP) was administered by IP injection to further induce the production of the inflammatory cytokines, IL-1β and IL 18. After 0.5 hours, peritoneal lavage fluid was collected and analyzed for IL-1β and IL 18. An inhibitor of the NLRP 3 inflammasome, MCC950, was administered by IP injection and included as a reference test compound. […] IL18 levels were determined by a commercially available ELISA kit following the manufacture's instructions FIG. 3.

Jurkat cells = assay: Prevention of Fas-induced apoptosis in Jurkat cells (WST-8); type: cell-based; settings: Homo sapiens, 10 micromolar, read-out: % Prevention of Fas - induced Jurkat cell apoptosis at 10 micromolar
[1] = Rodent model of ulcerative colitis induced by TNBS; type: in vivo, Sprague-Dawley rats; settings: for colon histology: Edema, Submucosal, Mean / colon histology: Erosion/ Ulceration, Mean / colon histology: Hyperplasia, Epithelial, Mean / colon histology: Necrosis, Mucosal/ Gland Loss, Mean / colon histology: SUM Score, Mean / colon histology: Subacute Inflammation, Mucosal/ Submucosal, Mean / colon histology: Subacute Inflammation, Transmural/ Serosal, Mean: DAY 7
Description: Compounds of the present invention were tested by oral administration in a rodent model of ulcerative colitis (UC). Ulcerative colitis was induced in Sprague-Dawley rats by instillation of 48 mg/kg […], (TNBS), through the rectum. Testing included 4 active treatment groups and one vehicle control group.
Effect of TNBS-Induced UC in Vehicle Treated Control Group, (Group 1):
Rats were administered of 0.5% vehicle carboxy methylcellulose, (CMC), twice daily starting 24 hours after the instillation of TNBS.
At the termination of the study on DAY 7, the average colon weight in the diseased rats was 5.904±2.208 g, the average colon length was 11.0±1.4 cm and the average distal colon width was 3.1±1.0 cm. Severe adhesions involving multiple intestinal loops, severe stricture resulting in proximal colon distension, ulcers of 6.4±0.4 cm in length, and colonic wall thickness of 3.5±0.8 mm combined to yield an overall colonic score of 11.5±0.8 in the diseased rats. […] Subacute inflammation (sub/mucosal and transmural/serosal were graded separately) was characterized by infiltration and aggregation of neutrophils, eosinophils, lymphocytes, plasma cells, and macrophages. Mucosal necrosis was characterized by damage to, necrosis of, or complete loss of colonic glands. Erosions were characterized by coagulative necrosis or loss of surface epithelium superficial to the muscularis mucosae. Submucosal edema was characterized by expansion of the submucosa by clear space or pale eosinophilic fluid, variably accompanied by dilation of lymphatic vessels and similar edematous expansion of the lamina propria. Epithelial hyperplasia was characterized by elongation of colonic glands and increased numbers of epithelial mitotic figures.

[2] = Group 3, 10 mg/kg/dose twice daily oral
[3] = Group 4, 30 mg/kg/dose twice daily oral
[4] = Group 5, 100 mg/kg/dose twice daily oral
[5] = all dose groups (10, 30, 100 mg/kg/dose twice daily oral)

With `C[C@H](NC(=O)C(=O)Nc1c(F)cccc1F)C(=O)N[C@@H](CCC(=O)O)C(=O)COc1c(F)c(F)cc(F)c1F` [Example 6, (S)-4-((S)-2-(2-((2,6-Difluorophenyl)amino)-2-oxoacetamido)propanamido)-5-oxo-6-(2,3,5,6-tetrafluorophenoxy)hexanoic acid] the “inhibition of the in vivo production of IL-1β” value (IL-1β) was “statistically significant inhibition”, the inhibition at 10 µM (Jurkat cells) was no more than 10% and the “body weights, onset of significant improvement” value [1, 2] was “significantly improved beginning on DAY 4”. For the same compound, the “colon histology: Edema, Submucosal, Mean” value [1, 2] was 3.2, the “colon histology: Erosion/ Ulceration, Mean” value [1, 2] was 4.0 and the “colon histology: Hyperplasia, Epithelial, Mean” value (“colon histology: Hyperplasia” below) [1, 2] was 3.4. For the same compound, the “colon histology: Necrosis, Mucosal/ Gland Loss, Mean” value [1, 2] was 4.0, the “colon histology: SUM Score, Mean” value [1, 2] was 19.3 and the “colon histology: Subacute Inflammation, Mucosal/ Submucosal, Mean” value (“colon histology … Mucosal/ Submucosal, Mean” below) [1, 2] was 4.3. For the same compound, the “colon histology: Subacute Inflammation, Transmural/ Serosal, Mean” value (shortened to “colon histology … Transmural/ Serosal, Mean”) [1, 2] was 3.9, the average animal weight, Mean ([1]; Group 3, 10 mpk twice daily oral, study day 0) was 241 g and the average animal weight, Mean ([1]; Group 3, 10 mpk twice daily oral, study day 1) was 236 g. It also gave an average animal weight, Mean ([1]; Group 3, 10 mpk twice daily oral, study day 2) of 223 g, an average animal weight, Mean ([1]; Group 3, 10 mpk twice daily oral, study day 3) of 218 g and an average animal weight, Mean ([1]; Group 3, 10 mpk twice daily oral, study day 4) of 218 g. It also gave an average animal weight, Mean ([1]; Group 3, 10 mpk twice daily oral, study day 5) of 222 g, an average animal weight, Mean ([1]; Group 3, 10 mpk twice daily oral, study day 6) of 227 g and an average animal weight, Mean ([1]; Group 3, 10 mpk twice daily oral, study day 7) of 228 g. For the same compound, the average animal weight, Mean ([1]; Group 3, 10 mpk twice daily oral, study day −1) was 256 g, the average animal weight, Mean ([1]; Group 3, 10 mpk twice daily oral, study day −5) was 222 g and the “body weights, onset of significant improvement” value [1, 3] was “statistically significantly improved body weights starting on DAY 5”. The “reduction in overall colonic score” value [1, 3] was 40%, the “colon histology: Edema, Submucosal, Mean” value [1, 3] was 2.6 and the “colon histology: Erosion/ Ulceration, Mean” value [1, 3] was 3.4. The “colon histology: Hyperplasia” value [1, 3] was 3.1, the “colon histology: Necrosis, Mucosal/ Gland Loss, Mean” value [1, 3] was 3.4 and the “colon histology: SUM Score, Mean” value [1, 3] was 17.6. For the same compound, the “colon histology … Mucosal/ Submucosal, Mean” value [1, 3] was 3.9, the “colon histology … Transmural/ Serosal, Mean” value [1, 3] was 3.2 and the average animal weight, Mean ([1]; Group 4, 30 mpk twice daily oral, study day 0) was 234 g. The average animal weight, Mean ([1]; Group 4, 30 mpk twice daily oral, study day 1) was 228 g, the average animal weight, Mean ([1]; Group 4, 30 mpk twice daily oral, study day 2) was 215 g and the average animal weight, Mean ([1]; Group 4, 30 mpk twice daily oral, study day 3) was 214 g. For the same compound, the average animal weight, Mean ([1]; Group 4, 30 mpk twice daily oral, study day 4) was 216 g, the average animal weight, Mean ([1]; Group 4, 30 mpk twice daily oral, study day 5) was 218 g and the average animal weight, Mean ([1]; Group 4, 30 mpk twice daily oral, study day 6) was 220 g. For the same compound, the average animal weight, Mean ([1]; Group 4, 30 mpk twice daily oral, study day 7) was 223 g, the average animal weight, Mean ([1]; Group 4, 30 mpk twice daily oral, study day −1) was 248 g and the average animal weight, Mean ([1]; Group 4, 30 mpk twice daily oral, study day −5) was 222 g. For the same compound, the “body weights, onset of significant improvement” value [1, 4] was “statistically significantly improved body weights starting on DAY 5”, the “colon histology: Edema, Submucosal, Mean” value [1, 4] was 3.0 and the “colon histology: Erosion/ Ulceration, Mean” value [1, 4] was 3.6. The “colon histology: Hyperplasia” value [1, 4] was 3.0, the “colon histology: Necrosis, Mucosal/ Gland Loss, Mean” value [1, 4] was 3.6 and the “colon histology: SUM Score, Mean” value [1, 4] was 17.5. For the same compound, the “colon histology … Mucosal/ Submucosal, Mean” value [1, 4] was 3.9, the “colon histology … Transmural/ Serosal, Mean” value [1, 4] was 3.4 and the average animal weight, Mean ([1]; Group 5, 100 mpk twice daily oral, study day 0) was 232 g. It also gave an average animal weight, Mean ([1]; Group 5, 100 mpk twice daily oral, study day 1) of 231 g, an average animal weight, Mean ([1]; Group 5, 100 mpk twice daily oral, study day 2) of 219 g and an average animal weight, Mean ([1]; Group 5, 100 mpk twice daily oral, study day 3) of 213 g. For the same compound, the average animal weight, Mean ([1]; Group 5, 100 mpk twice daily oral, study day 4) was 217 g, the average animal weight, Mean ([1]; Group 5, 100 mpk twice daily oral, study day 5) was 220 g and the average animal weight, Mean ([1]; Group 5, 100 mpk twice daily oral, study day 6) was 222 g. It also gave an average animal weight, Mean ([1]; Group 5, 100 mpk twice daily oral, study day 7) of 225 g, an average animal weight, Mean ([1]; Group 5, 100 mpk twice daily oral, study day −1) of 246 g and an average animal weight, Mean ([1]; Group 5, 100 mpk twice daily oral, study day −5) of 222 g. The “SUM scores of colon histological parameters” value [1, 5] was “statistically significant improvement” and the overall colonic score [1, 5] was “statistically significant improvement”.
